Assay results reported in patent US20080004272A1, “Compositions and methods for modulating gated ion channels” (PainCeptor Pharma Corporation, priority 2006, published 2008).

What follows are compounds tested against T1, ASIC1a (Homo sapiens, UniProt P78348) (assay: Calcium imaging of MES-induced calcium response (FLIPR)). Settings: ASIC1a expressing HEK293 cells, MES-induced calcium response; read-out: IC50 (FLIPR).
T1 sequence (P78348 1-528): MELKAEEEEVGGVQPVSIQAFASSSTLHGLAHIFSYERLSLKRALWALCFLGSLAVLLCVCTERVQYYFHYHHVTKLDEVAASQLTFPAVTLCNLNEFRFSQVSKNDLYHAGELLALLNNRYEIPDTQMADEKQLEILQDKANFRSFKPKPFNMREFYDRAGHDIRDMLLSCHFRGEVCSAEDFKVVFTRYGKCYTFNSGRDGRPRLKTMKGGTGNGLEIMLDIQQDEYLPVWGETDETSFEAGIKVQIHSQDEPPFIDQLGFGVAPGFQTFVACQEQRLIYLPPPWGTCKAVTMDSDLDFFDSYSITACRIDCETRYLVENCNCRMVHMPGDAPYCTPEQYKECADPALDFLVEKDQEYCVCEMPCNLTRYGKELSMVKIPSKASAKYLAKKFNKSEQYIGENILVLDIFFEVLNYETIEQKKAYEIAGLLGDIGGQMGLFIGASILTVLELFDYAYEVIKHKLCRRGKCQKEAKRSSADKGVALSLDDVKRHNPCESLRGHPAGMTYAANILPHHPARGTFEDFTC
Assay type: cell-based
Set-up: host or cells: HEK293
Procedure: […] Confluency of cells should be 80-90% on day of plating. Cells are rinsed with 10 ml of PBS and cells are re-suspended by addition of culture medium and trituration with a 25 ml pipette.
The cells are seeded at a density of approximately 1×10^6 cells/ml (100 μl/well) in black-walled, clear bottom, 96-well plates pre-treated with 10 mg/l poly-D-lysin (75 μl/well for ≧30 min). Plated cells are allowed to proliferate for 24 h before loading with dye.
Fluo-4/AM (1 mg, Molecular Probes) is dissolved in 912 μl DMSO. The Fluo-4/AM stock solution (1 mM) is diluted with culture medium to a final concentration of 2 μM (loading solution).
The culture medium is aspirated from the wells, and 50 μl of the Fluo-4/AM loading solution is added to each well. The cells are incubated at 37° C. for 30 min.
Following the second wash, 100 μl modified Assay Buffer is added to each well and the fluorescence is measured in FLIPR™ or FlexStation™ (Molecular Devices, USA), or any other suitable equipment known to the skilled in the art.
Temperature: Room temperature (20-22° C.)
First addition: 50 μl test solution at a rate of 30 μl/sec and a starting height of […]
Second addition: 50 μl MES solution (20 mM, 5 mM final concentration) at a rate of 35 μl/sec and a starting height of 150 μl.
Reading intervals: pre-incubation−10 sec×7 and 3 sec×3 antagonist phase−3 sec×7 and 10 sec×12
Addition plates (compound test plate and MES plate) are placed on the right and left positions in the FLIPR tray, respectively. Cell plates are placed in the middle position and the ASIC1a program is effectuated. FLIPR will then take the appropriate measurements in accordance with the interval settings above. Fluorescence obtained after stimulation is corrected for the mean basal fluorescence (in modified Assay Buffer).
The MES-induced peak calcium response, in the presence of test substance, is expressed relatively to the MES response alone. Test substances that block the MES-induced calcium response are re-tested in triplicates.

Row | SMILES | IC50 [µM]
1 | O=C1Nc2c(cc(-c3ccccc3)c3c2CCCC3)/C1=N/O [Compound 114] | > 70
2 | CCOC(=O)N1CCc2c(Br)ccc(NC(=O)CCl)c2C1 [Compound 145] | > 70
3 | O=C(/C=N/O)Nc1ccc(-c2ccccc2)c2ccncc12 [Compound 152] | > 70
4 | CN1CCc2c(-c3ccccc3)ccc(NC(=O)CC(=O)O)c2C1 [Compound 153] | > 70
5 | CC(=O)Nc1c([N+](=O)[O-])cc(-c2ccccc2)c2c1CN(C)CC2 [Compound 154] | > 70
6 | CN1CCc2c(cccc2-c2ccccc2)C1 [Compound 173] | > 70
7 | CN1CCc2c(-c3ccccc3S(=O)(=O)N(C)C)cc3c(c2C1)NC(=O)/C3=N\O [Compound 223] | > 70

The compounds below were run against T1, ASIC1a (assay: Two-electrode voltage clamp in Xenopus laevis oocytes (Xo), acid-induced currents). Settings: 30 μM, Xenopus oocytes; read-out: % inh. at 30 μM (Xo).
Assay type: cell-based
Set-up: expressed in transfected cells; host or cells: Xenopus laevis oocytes (nuclear microinjection of expression vector such as pcDNA3)
Procedure: Two-electrode voltage clamp electrophysiological assays in Xenopus laevis oocytes expressing gated ion channels are performed as follows:
Oocytes are surgically removed from adult Xenopus laevis and treated for 2 h at room temperature with 1 mg/ml type I collagenase (Sigma) in Barth's solution under mild agitation. Selected oocytes at stage IV-V are defolliculated manually before nuclear microinjection of 2.5-5 ng of a suitable expression vector, such as pcDNA3, comprising the nucleotide sequence encoding a gated ion channel subunit protein. In such an experiment, the oocytes express homomultimeric proton-gated ion channels on their surface. In an alternate experiment, one, two, three or more vectors comprising the coding sequences for distinct gated ion channel subunits are co-injected in the oocyte nuclei. In the latter case, oocytes express heteromultimeric proton-gated ion channels. For example, ASIC2a and/or ASIC3 subunits in pcDNA3 vector are co-injected at a 1:1 cDNA ratio. After 2-4 days of expression at 19° C. in Barth's solution containing […] gentamicin and 1.8 mM CaCl2, gated ion channels are activated by applying an acidic solution (pH<7) and currents are recorded in a two electrode voltage-clamp configuration, using an OC-725B amplifier (Warner Instruments). Currents are acquired and digitized at 500 Hz on an Apple Imac G3 computer with an A/D NB-MIO-16XL interface (National Instruments) and recorded traces are post-filtered at 100 Hz in Axograph (Axon Instruments) (Neher, E. and Sakmann, B. (1976) Nature 260:799-802). Once impaled with the microelectrodes, oocytes are continuously superfused at 10-12 ml/min with a modified Ringer's solution containing 97 mM NaCl, 2 mM KCl, 1.8 mM CaCl2, and 10 mM HEPES brought to pH 7.4 with NaOH (Control Ringer). Test Ringer solution is prepared by replacing HEPES with MES and adjusting the pH to the desired acidic value. Compounds of the present invention are prepared in both the Control and Test Ringer solutions and applied to oocytes at room temperature through a computer-controlled switching valve system. Osmolarity of all solutions is adjusted to 235 mOsm with choline chloride. Similarly, recordings can also be acquired in an automated multichannel oocytes system as the OpusExpress™ (Molecular Devices, Sunnyvale, USA).
FIGS. 1A and 2A illustrate the inhibitory effects of Compounds 203 and 206 on acid-induced activation of recombinant homomeric hASIC1a channels.

Row | SMILES | inhibition at 30 µM [%]
8 | CN1CCc2c(-c3ccccc3)cc3c(c2C1)NC(=O)/C3=N/OC1CCCCO1 (centres unmarked) [Compound 61] | > 50

Same assay, conditions: 50 μM, Xenopus oocytes; read-out: % inh. at 50 μM (Xo)

Row | SMILES | inhibition at 50 µM [%]
9 | COc1ccc(F)cc1Nc1ccc([N+](=O)[O-])c2c1CCN(C)C2 [Compound 6] | < 25
10 | COc1ccc(F)cc1Nc1ccc(N)c2c1CCN(C)C2 [Compound 7] | < 25
11 | COc1ccc(F)cc1Oc1ccc([N+](=O)[O-])c2cnccc12 [Compound 8] | < 25
12 | COc1ccc(F)cc1Oc1ccc([N+](=O)[O-])c2c1CCN(C)C2 [Compound 10] | < 25
13 | COc1ccc(F)cc1Oc1ccc([N+](=O)[O-])c2c[n+](C)ccc12 [Compound 11] | < 25
14 | COc1ccc(F)cc1Oc1cc2c(c3c1CCN(C)C3)NC(=O)/C2=N/O [Compound 12] | 50 to 70
15 | COc1ccc(F)cc1Oc1cc2c(c3c1CCN(C)C3)NC(=O)C2=O [Compound 13] | < 25
16 | CCOC(C)O/N=C1/C(=O)Nc2c1cc(-c1ccccc1)c1c2CN(C)CC1 (centres unmarked) [Compound 63] | 30 to 50
17 | CC(=O)OCCOCO/N=C1/C(=O)Nc2c1cc(-c1ccccc1)c1c2CN(C)CC1 [Compound 64] | < 25
18 | COC(=O)c1ccccc1CO/N=C1/C(=O)Nc2c1cc(-c1ccccc1)c1c2CN(C)CC1 [Compound 65] | 20 to 40
19 | COCCOCN1C(=O)/C(=N/O)c2cc(-c3ccccc3)c3c(c21)CN(C)CC3 [Compound 66] | 20 to 40
20 | CCOC(C)O/N=C1/C(=O)Nc2c1cc(-c1cc(F)ccc1OC)c1c2CN(C)CC1 (centres unmarked) [Compound 67] | < 25
21 | CN1CCc2c(-c3ccccc3)cc3c(c2C1)NCC/C3=N/O [Compound 96] | 20 to 40
22 | CN1CCc2c(-c3ccccc3)cc3[nH]c(=O)c(=O)[nH]c3c2C1 [Compound 100] | < 25
23 | CN1CCc2c(-c3ccccc3)cc3ncc(O)nc3c2C1 [Compound 101] | < 25
24 | CN1CCc2c(-c3ccccc3)cc3c(c2C1)NC(=O)C3=NNC(=O)C(N)=O [Compound 107] | 20 to 40
25 | CNN=C1C(=O)Nc2c1cc(-c1ccccc1)c1c2CN(C)CC1 [Compound 108] | < 25
26 | CN1CCc2c(-c3ccccc3)cc3c(c2C1)NC(=O)C3=NNCCO [Compound 109] | < 25
27 | CCOC(=O)CC(=O)NN=C1C(=O)Nc2c1cc(-c1ccccc1)c1c2CN(C)CC1 [Compound 110] | < 25

Row | SMILES | inhibition at 50 µM [%]
28 | CC(=O)NN=C1C(=O)Nc2c1cc(-c1ccccc1)c1c2CN(C)CC1 [Compound 112] | < 25
29 | CN1CCc2c(-c3ccccc3)cc3c(c2C1)NC(=O)C3=NNC(=O)c1ccc(O)cc1O [Compound 113] | < 25
30 | CN1CCc2c(-c3ccccc3)ccc(CNC(=O)c3ccccc3)c2C1 [Compound 116] | < 25
31 | CCOC(=O)CN(Cc1ccccc1)Cc1ccc(-c2ccccc2)c2c1CN(C(=O)OCC)CC2 [Compound 122] | 20 to 40
32 | CCOC(=O)N1CCc2c(-c3ccccc3)ccc(CN(CC(=O)O)Cc3ccccc3)c2C1 [Compound 123] | < 25
33 | CN1CCc2c(Br)ccc(NC(=O)CCl)c2C1 [Compound 146] | < 25
34 | CCOC(=O)N1CCc2c(Br)cc(C(=O)CCl)c(N)c2C1 [Compound 163] | < 25
35 | CC(=O)Nc1c(C(N)=O)cc(-c2ccccc2)c2c1CN(C)CC2 [Compound 164] | < 25
36 | CC(C)(C)OC(=O)N1CCc2c(-c3ccccc3)ccc(NCC(=O)O)c2C1 [Compound 165] | 20 to 40
37 | CN1CCc2c(-c3ccccc3)cc(C(=O)NOCc3ccccc3)c(N)c2C1 [Compound 166] | < 25
38 | COC(=O)CNc1ccc(-c2ccccc2)c2c1CN(C(=O)OC(C)(C)C)CC2 [Compound 167] | < 25
39 | CC(C)(C)OC(=O)N1CCc2c(-c3ccccc3)ccc(N)c2C1 [Compound 168] | < 25
40 | COC(=O)CN(C(C)=O)c1ccc(-c2ccccc2)c2c1CN(C)CC2 [Compound 169] | < 25
41 | CC(C)(C)OC(=O)N1CCc2c(-c3ccccc3)ccc(NCC(=O)Oc3ccccc3)c2C1 [Compound 170] | < 25
42 | O=C(/C=N/O)Nc1ccc(-c2ccccc2)c2c1CNCC2 [Compound 171] | < 25
43 | CN1CCc2c(-c3ccccc3)cc(C#N)c(Br)c2C1 [Compound 175] | < 25
44 | CN1CCc2c(-c3ccccc3)cc(C#N)c(Cl)c2C1 [Compound 176] | < 25
45 | CCN(CC)C(=O)c1cc(-c2cc(F)ccc2OC)cc(C)c1N [Compound 188, 4-Amino-5′-fluoro-2′-methoxy-5-methyl-biphenyl-3-carboxylic acid diethylamide] | < 25
46 | CCN(CC)C(=O)c1cc(-c2cc(F)ccc2OC)cc(C)c1N(C(=O)N1CCOCC1)C(=O)N1CCOCC1 [Compound 190, Morpholine-4-carboxylic acid (5-diethylcarbamoyl-5′-fluoro-2′-methoxy-3-methyl-biphenyl-4-yl)-(morpholine-4-carbonyl)-amide] | < 25

Same assay, conditions: 100 μM, Xenopus oocytes; read-out: % inh. at 100 μM (Xo)

Row | SMILES | inhibition at 100 µM [%]
47 | COCCOCO/N=C1/C(=O)Nc2c1cc(-c1ccccc1)c1c2CN(C)CC1 [Compound 62] | > 50
